Test results reported in article PMC12185579, “Impact of nephrotoxins and oxidants on survival and transport function of hiPSC-derived renal proximal tubular cells” (Archives of Toxicology, 2025).
Several values for one entry are separate records, joined by “and”; a condition that tells them apart may be missing. Equal values may be shown once. Read-outs that look alike come from different tables or passages of the source.

Columns and labels:
[1] = system: hiPSC, diffD3 and diffD9; assay: Cell viability of all differentiation stages, with and without pan-caspase inhibitor QVD; format: cell-based, human; conditions: 10 µM QVD
Experimental: (§1) After 24 h of exposure, the viability of the undifferentiated, differentiating, and differentiated cells was examined using the Alamar Blue Assay (O'Brien et al. [2000]), as described previously (Mboni-Johnston et al. [2023]). The relative viability of the cells in the corresponding untreated controls was set to 100%.

[2] = system: hiPSC, diffD3 and diffD9; parameters: method as in Mboni-Johnston et al. [2023]; conditions: diffD3, differentiated PTELC ref Mboni-Johnston et al. [2023]; cited from earlier work
[3] = system: diffD3; assay: EdU incorporation (proliferation), diffD3; format: cell-based, human; conditions: diffD3, 24 h, hiPSC's IC20 and IC50
Experimental: (§2) To investigate the effect of toxins on the proliferation rate, the incorporation of EdU into S-phase cells was determined using the EdU-Click 488 assay according to the manufacturer’s protocol (Baseclick GmbH, Tutzing, Germany) as reported earlier (Mboni-Johnston et al. [2023]).

[4] = system: diffD9; assay: FITC-albumin uptake at diffD9 after treatment at diffD3; format: cell-based, human; conditions: treated 24 h at diffD3 with hiPSC's IC20 and IC50, analyzed at diffD9
Experimental: Cells were incubated with serum-free medium with/without 100 µg/ml FITC-albumin for 2 h at 37 °C, and uptake was stopped with ice-cold PBS. Cells were then harvested from Matrigel-coated wells with trypsin/EDTA, and albumin uptake was analyzed by flow cytometry [Becton Dickinson, Accuri™ C6 plus (Heidelberg, Germany)] as previously reported (Mboni-Johnston et al. [2023]).

[5] = system: stem cell markers, PTEC markers and transporters mRNA in diffD9; assay: RT-PCR marker gene expression at diffD9 after treatment at diffD3; format: cell-based, human; conditions: for expression of megalin and cubilin: treated at diffD3, analyzed at diffD9
Experimental: (§3) RNA was isolated using the RNeasy Mini Kit and RNase-free DNase Set (Qiagen, Venlo, The Netherlands) according to the manufacturer’s protocol as reported previously (Mboni-Johnston et al. [2023]). The primer sequences (Table S1, supplement) used for the mRNA expression analyses were designed with the help of NCBI (https://www.ncbi.nlm.nih.gov/nuccore/) and validated for specificity. At the end of the run, data were analyzed using CFX Manager software (v3.1, Bio-Rad Laboratories, Hercules, CA, USA) according to the manufacturer’s instructions. All samples were run with three technical replicates. The Cq values obtained for the genes of interest were first normalized to the mean Cq values obtained for the housekeeping genes ACT-β and RPL-32 and then for the control samples and expressed as a fold of this mean value. Changes in gene expression of ≤ 0.5- and ≥ twofold were considered biologically relevant.

[6] = system: hiPSC; assay: EdU incorporation (proliferation), hiPSC; format: cell-based, human; conditions: 24 h, hiPSC's IC20 and IC50
Experimental: as §2

[7] = system: hiPSC; parameters: method as in Mboni-Johnston et al. [2023]; conditions: as given in Fig. 7 legend, value from former study ref Mboni-Johnston et al. [2023], cited from earlier work
[8] = system: diffD9; assay: EdU incorporation (proliferation), diffD9; format: cell-based, human; conditions: diffD9, 24 h, hiPSC's IC20 and IC50
Experimental: as §2

[9] = system: senescence-associated genes (β-GAL, IL-8, p21) in hiPSC; assay: RT-PCR senescence-associated genes, hiPSC; format: cell-based, human; conditions: 48 h after a 24 h treatment
Experimental: as §3

[10] = system: diffD9; parameters: method as in Mboni-Johnston et al. [2023]; conditions: ref Mboni-Johnston et al. [2023]; cited from earlier work
[11] = system: diffD9; assay: TUNEL assay (apoptosis), diffD9; format: cell-based, human; conditions: diffD9, 24 h, IC20 and IC50 of the hiPSC (CisPt: a higher concentration added)
Experimental: (§4) To verify whether the substances analyzed induce apoptosis in the cells at different stages of differentiation, the TUNEL (terminal deoxynucleotidyl transferase-mediated dUTP-fluorescein nick-end labeling) assay was performed with cells grown on coverslips using the In-Situ Cell Death Detection Assay Kit (Roche GmbH, Grenzach-Wyhlen, Germany) according to the manufacturer’s instructions. The TUNEL assay visualizes free hydroxyl groups from fragmented DNA produced during apoptosis by labeling them with modified nucleotides through an enzymatic reaction (Gavrieli et al. [1992]). The coverslips were mounted with […]® Antifade Mounting Medium containing DAPI and sealed with nail polish. Fluorescence images were acquired using a fluorescence microscope (Olympus BX43 Upright Microscope, Olympus, Shinjuku, Tokyo, Japan) at 200-fold magnification and analyzed using ImageJ 1.51j8 (Schneider et al. [2012]). TUNEL-positive cells were referenced to the total number of cells and normalized to the untreated control.

[12] = system: senescence-associated genes (β-GAL, IL-8, p21) in diffD9; assay: RT-PCR senescence-associated genes, diffD9; format: cell-based, human; conditions: diffD9, 48 h after a 24 h treatment
Experimental: as §3

[13] = system: senescence-associated genes (β-GAL, IL-8, p21) in diffD3; assay: RT-PCR senescence-associated genes, diffD3; format: cell-based, human; conditions: diffD3, 48 h after a 24 h treatment
Experimental: as §3

[14] = system: diffD3; assay: TUNEL assay (apoptosis), diffD3; format: cell-based, human; conditions: diffD3, 24 h, IC20 and IC50 of the hiPSC
Experimental: as §4

[15] = system: hiPSC; assay: TUNEL assay (apoptosis), hiPSC; format: cell-based, human; conditions: 24 h, IC20 and IC50 of the hiPSC
Experimental: as §4

[16] = system: hiPSC; assay: Alamar Blue cell viability, undifferentiated hiPSC; format: cell-based, human; conditions: for IC20 / IC50: Homo sapiens; for IC20: read-out: hiPSC's IC20
Experimental: as §1

[17] = system: diffD9 (hiPSC differentiated into PTELC); assay: Alamar Blue cell viability, differentiated cells day 9; format: cell-based, human; conditions: diffD9, 24 h treatment; for IC20: read-out: IC20 (inhibitory concentration where 20% of the cells are dead)
Experimental: as §1

[18] = system: diffD9; assay: FITC-albumin uptake (flow cytometry) in diffD9 treated at diffD9; format: cell-based, human; conditions: diffD9, 24 h treatment (menadione: IC50)
Experimental: The effect of toxins on the transport function of hiPSC-derived PTELC was examined by adding fluorescently labeled bovine serum albumin (FITC-BSA) (Sigma-Aldrich, 10 mg/ml) to the culture medium. Cells were incubated with serum-free medium with/without 100 µg/ml FITC-albumin for 2 h at 37 °C, and uptake was stopped with ice-cold PBS. Cells were then harvested from Matrigel-coated wells with trypsin/EDTA, and albumin uptake was analyzed by flow cytometry [Becton Dickinson, Accuri™ C6 plus (Heidelberg, Germany)] as previously reported (Mboni-Johnston et al. [2023]).

[19] = system: diffD3 (hiPSC differentiating into PTELC); assay: Alamar Blue cell viability, differentiating cells day 3; format: cell-based, human; conditions: for IC50 of diffD3, fold lower than those of hiPSC and diffD9: Alamar Blue, 24 h; for IC50: Homo sapiens, diffD3, 24 h treatment
Experimental: as §1

[20] = system: human liver cell line HepG2; parameters: method as in Chen and Cederbaum [1997]; conditions: HepG2, after 18 h of incubation ref Chen and Cederbaum [1997]; read-out: IC50 (cytotoxicity); cited from earlier work
[21] = system: PTEC markers and transporters mRNA in diffD9; assay: RT-PCR marker gene expression in diffD9 treated at diffD9; format: cell-based, human; conditions: diffD9, 24 h; for Aqp-1 mRNA expression: IC20 and IC50, vs untreated diffD9; for Pept-1 mRNA expression: IC50 (tBHQ not statistically significant); for Meg (megalin) mRNA expression: Mena IC20 and IC50, tBHQ IC50 (not statistically significant)
Experimental: as §3

[22] = system: mammary epithelial cells; parameters: method as in Jin et al. [2016]; conditions: mammary epithelial cells ref Jin et al. [2016]; read-out: IC50 (cell viability); cited from earlier work
[23] = system: endothelial cells; parameters: method as in Karimi et al. [2019]; conditions: endothelial cells ref Karimi et al. [2019]; read-out: IC50 (cell viability); cited from earlier work
[24] = as given in Fig. 7 legend, concentration used to treat diffD3 for 24 h
[25] = as given in Fig. 7 legend, concentration used to treat diffD3 for 24 h, read-out: hiPSC's IC50
[26] = hiPSC, 24 h treatment, read-out: IC50 (cell viability, Alamar Blue)

Structure (SMILES)	EdU incorporation (proliferation) vs untreated control [3]	albumin uptake [4]	EdU incorporation (proliferation) vs untreated control [6]	EdU incorporation (cells in S-phase) vs untreated control [8]	mRNA expression of senescence-associated genes (β-GAL, IL-8, p21) [12]	mRNA expression of senescence-associated genes (β-GAL, IL-8, p21) [13]	frequency of TUNEL-positive cells [14]	IC20 [16, 24]	IC50 [16, 25]	IC50 [16, 26]	IC50 ([17]; Homo sapiens, 24 h)	IC20 ([17]; Homo sapiens)	IC50 [17]	albumin transport (FITC-albumin uptake) [18]	expression of megalin and cubilin [5]	IC50 of diffD3, fold lower than those of hiPSC and diffD9 [19]	IC50 [19]	Aqp-1 mRNA expression [21]	Pept-1 mRNA expression [21]	Meg (megalin) mRNA expression [21]	other results
N.N.[Cl][Pt][Cl] [CisPt, cisplatin]	not affected	strong effect	inhibited the likely proliferation-associated EdU incorporation in hiPSC in a dose-dependent manner	not affected	no extensive expression	only p21 was significantly higher expressed in diffD3	increased in a dose-dependent manner	–	–	–	–	–	–	–	–	–	–	–	–	–	cell viability under co-treatment with pan-caspase inhibitor QVD vs mono-treatment [1]: significant restoration of cell viability to almost control level; relative sensitivity of differentiation stages [2]: hiPSC and diffD3 were more sensitive to CisPt than differentiated PTELC; long-term changes in marker transcripts ([5]; treated 24 h at diffD3 with iPSCs' IC20, analyzed at diffD9): all but two transcripts being significantly reduced; IC20 ([7]; read-out: hiPSC's IC20): 0.3 µM; IC50 ([7]; read-out: hiPSC's IC50): 1 µM; mRNA expression of senescence-associated genes (β-GAL, IL-8, p21) [9]: no extensive expression; albumin uptake capacity of PTELC [10]: reduced the albumin uptake capacity; frequency of TUNEL-positive cells [11]: increased in a dose-dependent manner; frequency of TUNEL-positive cells [15]: increased in a dose-dependent manner
CC1=CC(=O)c2ccccc2C1=O [Mena, menadione]	inhibited proliferation	no effect on albumin transport itself	no significant differences in EdU incorporation	no significant differences in EdU incorporation	IL-8 levels significantly increased	–	significantly increased	3 µM	6 µM	16.2 µM	17.6 µM	11 µM	17 µM	significant decrease	low but significant effect	about four	4.1 µM	significant and dose-dependent decrease	increased significantly	significant and dose-dependent decrease	IC50 ([17]; listed as Menadione): 18 µM; IC50 [20]: 18 to 19 µM; Nanog mRNA expression ([21]; IC20): significantly increased; CD13 mRNA expression ([21]; IC50): increased significantly; Pept-2 mRNA expression ([21]; IC50): reduced expression
CC(C)(C)c1cc(O)ccc1O [tBHQ, tert-butylhydroquinone]	inhibited proliferation	–	no significant differences in EdU incorporation	no significant differences in EdU incorporation	–	IL-8 levels significantly increased	significantly increased	4 µM	8 µM	18.5 µM	34.5 µM	15 µM	34 µM and 35 µM	increased the transport	neither showed a relevant effect	7- to 12	2.8 µM	significant dose-dependent decrease	increased above twofold	increased above twofold	sensitivity of hiPSC compared to diffD9 ([16]; Alamar Blue, 24 h): twice as sensitive; IC50 [22]: 50 µM; IC50 [23]: 60 µM; Cad-16 mRNA expression ([21]; IC50, statistically significant): increased above twofold
